Values after ≈ are worked out from the molar mass of the structure shown. Peptide text beside a SMILES is read from it.
How the values were obtained:
E. coli clin. isolate = format: cell-based, Escherichia coli; conditions: clin. isolate
Text: (§1) The American Type Culture Collection (ATCC, Rockville, MD, USA) strains and Escherichia coli MG1655 were used as standard bacterial strains. Gram-negative ATCC strains consisted of Escherichia coli (ATCC 25922), Pseudomonas aeruginosa (ATCC 27853), Acinetobacter baumannii (ATCC 19606), and Klebsiella pneumoniae (ATCC 13883). The only Gram-positive standard strain chosen for testing was Staphylococcus aureus (ATCC 29213). Clinical isolates with confirmed multidrug-resistance phenotype were obtained from different wards of the University Hospital Center, Split, Croatia. We described their origin, antibiograms, and resistance phenotype previously. In the same paper, we described the procedure for antimicrobial susceptibility testing on planktonic cells, using the microdilution method in 96-well microtiter plates.
(§2) Briefly, cells were grown on agar plates and a single colony was sampled to generate a liquid culture (LC) grown overnight at 37 °C. The culture was sampled, resuspended in fresh medium, and allowed to grow at 37 °C, until reaching the mid-exponential phase. Lysogeny broth (LB) was used in the case of the E. coli MG1655 cells. Mueller Hinton (MH) medium was used for all other bacterial strains. Serial 2-fold dilutions of the peptide (64 μM to 0.0625 μM) were prepared from peptide stock solution in PBS, and added to a final load of 5 × 10^5 CFU/mL in 100 μL total volume of medium per well in a 96-well plate (Brand 781660). Bacterial cultures were incubated with peptides for 18 h to 24 h at 37 °C. The minimum inhibitory concentration (MIC) was defined as the lowest concentration of the peptide, at which no visible bacterial growth was observed. The MIC for each of the tested peptides was determined in at least three individual assays under the same laboratory conditions. […] At the end of the incubation period for MIC or MBC, the determination of the OD600 was analyzed.

[1] = tested on: PC-3 prostate cancer cell line; format: cell-based, human; conditions: 24 h
Method: (§3) Prostate cancer cells were donated by the University of Split, School of Medicine. Cells were cultured in RMPI-1640 medium, supplemented with 10% FBS, 1% Penicillin-Streptomycin, and 1% L-Glutamine. Human dermal fibroblasts were purchased from Biopredic (France) and cultured in DMEM medium, supplemented with 10% FBS and 1% Penicillin-Streptomycin. All cell lines were maintained in a humidified incubator with 5% CO2 at 37 °C. Cells were detached using the trypsin-EDTA solution and sub-cultured (7000 cells/well) in a 96-well plate overnight. Peptide stock solutions were prepared in PBS, and cancer cells were treated with 2-fold serial dilutions for 24 h at 37 °C, with 5% CO2. The toxicity of 6 selected peptides was assessed by a standard MTT assay. Treated cells were incubated with MTT working solution (0.5 mg/mL Thiazolyl Blue Tetrazolium Bromide) for 4 h at 37 °C with 5% CO2. Precipitated formazan was dissolved in 200 µL DMSO and absorbance was measured at 595 nm with EnSight Multimode Plate Reader (PerkinElmer, Inc.)

[2] = tested on: human primary dermal fibroblasts; format: cell-based; conditions: 24 h
Method: as §3

S. aureus clin. isolate = format: cell-based, Staphylococcus aureus; conditions: clin. isolate
Text: as §1, §2

P. aerug. clin. isolate = format: cell-based, Pseudomonas aeruginosa
Text: as §1, §2

A. baum. clin. isolate = format: cell-based, Acinetobacter baumannii
Text: as §1, §2

human erythrocytes = test: Hemolysis of human erythrocytes; format: cell-based; conditions: 0.5% RBC in PBS, 1 h, 37 °C, absorbance 450 nm, triplicate; for HC10: concentration causing 10% hemolysis, 0.2% Triton = 100%; for HC20: concentration causing 20% hemolysis; for HC50: concentration causing 50% hemolysis
Method: Fresh blood was obtained from a healthy donor. Blood was stored in a tube containing EDTA at 4 °C and used within 24 h. Before use, 1 mL of blood was centrifuged (400× g, 10 min), and the supernatant was discarded. Moreover, 500 μL cold PBS with EDTA (1 mM) was added, mixed and centrifuged. The supernatant was discarded. Furthermore, 500 μL of cold PBS with EDTA (1 mM) was added, from which a dilution of 1% blood was made. Peptides were prepared in PBS at a 2 × concentration in 100 µL. […] The suspension was incubated at 37 °C for 1 h and centrifuged at 10,000× g for 5 min. […] After centrifugation, the supernatant was added to a 96-well microtiter plate (150–180 μL), and the absorbance was measured at 450 nm, using EnSight Multimode Plate Reader (PerkinElmer, Inc.). Each measurement was done in triplicate. […] We opted to also include the extrapolated HC50 in our results, to permit comparisons with older toxicity results. However, the HC20 measurements were used for ranking the peptides according to their selectivity and overall performance (Figure 1 and Figure 2 and Table 2).

[3] = tested on: Escherichia coli (ATCC 25922); format: cell-based; conditions: ATCC 25922
Text: as §1, §2

[4] = tested on: Pseudomonas aeruginosa (ATCC 27853); format: cell-based; conditions: ATCC 27853
Text: as §1, §2

[5] = tested on: Acinetobacter baumannii (ATCC 19606); format: cell-based; conditions: ATCC 19606
Text: as §1, §2

[6] = tested on: Klebsiella pneumoniae (ATCC 13883); format: cell-based; conditions: ATCC 13883
Text: as §1, §2

[7] = tested on: Staphylococcus aureus (ATCC 29213); format: cell-based
Text: as §1, §2

Escherichia coli MG1655 = format: cell-based; conditions: MG1655
Text: as §1, §2

K. pneum. clin. isolate = format: cell-based, Klebsiella pneumoniae
Text: as §1, §2

SMILES	MIC (E. coli clin. isolate) (E. coli clin. isolate) [µM]	(TI/ IC50C) vs. MP1 [1]	TI (HC20/IC20C) [1]	TI (IC50F/IC50C) [1]	TI/ IC50C [1]	IC50 [2] [µM]	MIC (S. aureus clin. isolate) (S. aureus clin. isolate) [µM]	MIC (P. aerug. clin. isolate) (P. aerug. clin. isolate) [µM]	MIC (A. baum. clin. isolate) (A. baum. clin. isolate) [µM]	HC10 (human erythrocytes) [µM]	HC20 (human erythrocytes) [µM]	HC50 (human erythrocytes) [µM]	MIC (E. coli ATCC 25922) [3] [µM]	MIC (P. aerug. ATCC 27853) [4] [µM]	MIC (A. baum. ATCC 19606) [5] [µM]	MIC (K. pneum. ATCC 13883) [6] [µM]	MIC (S. aureus ATCC 29213) [7] [µM]	MIC (E. coli MG1655) (Escherichia coli MG1655) [µM]	MIC (K. pneum. clin. isolate) (K. pneum. clin. isolate) [µM]	further results
CC[C@H](C)[C@H](NC(=O)[C@@H](NC(=O)[C@H](CCCNC(=N)N)NC(=O)CNC(=O)[C@@H](NC(=O)[C@H](CCCCN)NC(=O)[C@H](CCCCN)NC(=O)CNC(=O)[C@@H](NC(=O)[C@H](CCCCN)NC(=O)[C@H](CCCCN)NC(=O)[C@@H](NC(=O)[C@@H](NC(=O)[C@H](CCCCN)NC(=O)[C@H](CCCCN)NC(=O)[C@@H](NC(=O)[C@@H](NC(=O)[C@H](CCC(=O)O)NC(=O)[C@H](CCCNC(=N)N)NC(=O)CNC(=O)[C@@H](NC(=O)CN)[C@@H](C)CC)[C@@H](C)CC)[C@@H](C)CC)[C@@H](C)CC)[C@@H](C)CC)[C@@H](C)CC)[C@@H](C)CC)[C@@H](C)CC)C(N)=O [ZYK1] (H-GIGREIIKKIIKKIGKKIGRII-NH2)	2 (≈ 4.95 µg/mL)	107	8.6	6.7	4.47	10	2 (≈ 4.95 µg/mL)	16 (≈ 39.6 µg/mL)	2 (≈ 4.95 µg/mL)	3	8	29	1 (≈ 2.47 µg/mL)	16 (≈ 39.6 µg/mL)	2 (≈ 4.95 µg/mL)	2 (≈ 4.95 µg/mL)	1 (≈ 2.47 µg/mL)	4 (≈ 9.9 µg/mL)	4 (≈ 9.9 µg/mL)	IC50 [1]: 1.5 µM; PEa(20) = SI/MIC(aureus) ([7]; ATCC 29213, 18 h): 8 µM⁻¹
CC[C@H](C)[C@H](NC(=O)[C@H](CCCCN)NC(=O)[C@H](CC(C)C)NC(=O)[C@H](C)NC(=O)[C@H](CCCCN)NC(=O)[C@H](CC(C)C)NC(=O)[C@H](C)NC(=O)[C@@H](NC(=O)[C@H](CCCCN)NC(=O)[C@H](C)NC(=O)[C@@H](NC(=O)[C@@H](N)CCCCN)[C@@H](C)CC)C(C)C)C(=O)N[C@@H](C)C(=O)N[C@@H](CCCCN)C(=O)NCC(=O)N[C@@H](C)C(=O)N[C@@H](CC(C)C)C(=O)N[C@@H](CCCCN)C(=O)N[C@@H](C)C(=O)N[C@@H](CC(C)C)C(N)=O [KIA1] (H-KIAKVALKALKIAKGALKAL-NH2)	12 (≈ 24.6 µg/mL)	1.6	1	1	0.07	15	3 (≈ 6.14 µg/mL)	3 (≈ 6.14 µg/mL)	1.5 (≈ 3.07 µg/mL)	3	6	20	0.75 (≈ 1.54 µg/mL)	6 (≈ 12.3 µg/mL)	1.5 (≈ 3.07 µg/mL)	3 (≈ 6.14 µg/mL)	1 (≈ 2.05 µg/mL)	8 (≈ 16.4 µg/mL)	12 (≈ 24.6 µg/mL)	–
